Data as given in US20090247495A1, “CU[…] AND USES THEREOF” (priority 2007, published 2009).

Tests used:
K562 cells = assay: Flow cytometry for apoptosis analysis (Annexin V / PI), K562; type: cell-based, human; conditions: 80 nM, 48 hours
Procedure: 10^5/ml K562 cells were treated with cucurbitacin B in the presence of complete medium containing 10% FBS for 48 hours. The changes in cell morphology were visualized using Leica DMIL (Leica Microsystem). Cells were harvested and rinsed twice with ice-cold PBS (pH7.4) and a total 2.5×10^5 K562 cells were stained with 10 μl Annexin V and 10 μl propidium iodide in 100 μl 1×binding buffer for 15 minutes in dark and then subjected to apoptosis analysis with FACSCalibar Flow cytometer system (FACS Calibur BD Flow Cytometer). • 6.1.5 Flow Cytometry for Cell Cycle Analysis
Appropriate number of cell density were seeded into T-25 culture flask and treated with different doses of cucurbitacin B for 2 days. The apoptotic effects of cucurbitacin B on the cells were detected using Flow Cytometry analysis after stained with Anx.V and PI for 15 minutes. […] Cucuribitacin B induced apoptosis in a dose dependent manner, among them, 80 nM induced the highest apoptotic effect in K562 cells, with over 50% cells in apoptotic population and 10% cells in the necrotic population (late apoptotic and necrotic phase). The effect of cucurbitacin B on apoptosis and cell cycle profile in K562 cells were analyzed using flow cytometry, as depicted in FIG. 3.

HL60 and U937 cells = assay: Cytoskeletal staining (F-actin, confocal); type: cell-based, human; conditions: two days
Procedure: HL60 and U937 cells were incubated with cucurbitacin B for two days at 37° C. Then the cells were centrifuged and fixed in 4% paraformaldehyde, permeabilized with 0.1% Triton X-100 in PBS, and incubated with FITC-conjugated anti-β-tubulin antibody, followed by rhodamine-phalloidin to detect filamentous F-actin. Confocal images were collected on a Leica microscope. […] Untreated HL 60 and U937 cells were depicted in FIGS. 15A and 15C, and cultured HL 60 and U937 cells were depicted in FIGS. 15B and 15D. • 6.2.8 Cucurbitacin B and Cucurbitacin D Inhibited Stat3 Activation and Stimulated Erk and Hsp27 Activation in HepG2, HT29 and MCF-7 Cells

HepG2 = assay: Hollow fiber assay, HepG2; type: in vivo, nude mice; conditions: 0.2 mg/kg, i.p., s.c. and p.o., up to 14 days
Procedure: The hollow fiber assay (HFA) was developed by the NCI as a high-throughput, preliminary in vivo screening assay for the evaluation of anti-cancer agents. Human liver cancer cell lines HepG2 and HepG2-resistant (HepG2-R) were in vitro cultured inside hollow fibers for a short term (48 hours), followed by in vivo implantation at s.c. sites of the nude mice. Mice were treated with negative control (0.5% CMC), positive control (10 mg/kg 5-Fluorouracil) and cucurbitacin B (0.2 mg/kg) for up to 14 days. Then the fibers were excised and analyzed for cell viability by MTT assay. The efficacies of cucurbitacin B against HepG2 and HepG2-R were expressed as the percentage of the results obtained in the negative control group.

CC(=O)OC(C)(C)/C=C/C(=O)[C@](C)(O)C1[C@H](O)C[C@@]2(C)C3CC=C4C(C[C@H](O)C(=O)C4(C)C)[C@]3(C)C(=O)C[C@]12C (stereo partly shown) [cucurbitacin B]
cells in apoptotic population (K562 cells): over 50%
cells in the necrotic population (late apoptotic and necrotic phase) (K562 cells): 10%
effect on cytoskeletal network (F-actin) (HL60 and U937 cells): rapid and improper polymerization of the F-actin network
cell growth in hollow fibers (HepG2): potently inhibited
